Earlier results on 1 compound are cited in patent US10328076B2, “Pharmaceutical composition comprising a triazole antifungal agent and method for preparation thereof” (PHARMATHEN S.A., priority 2014, dated 2019).

Read-outs that look alike come from different tables or passages of the source.

Turning to `C[C@@H](c1ncncc1F)[C@](O)(Cn1cncn1)c1ccc(F)cc1F` [Voriconazole, (2R,3S)-2-(2,4-difluorophenyl)-3-(5-fluoropyrimidin-4-yl)-1-(1H-1,2,4-triazol-1-yl)butan-2-ol], the Solubility entry runs as follows: (in acetone) “freely soluble”; (in dichlorometane) “freely soluble”; (in water) “very slightly soluble”.
